The values that follow come from paper PMC6152631, “Microwave-Assisted Facile Synthesis, Anticancer Evaluation and Docking Study of N-((5-(Substituted methylene amino)-1,3,4-thiadiazol-2-yl)methyl) Benzamide Derivatives” (Molecules : A Journal of Synthetic Chemistry and Natural …, 2017).

Holding throughout (assay type): cell-based
Series [1] relates to HL-60 (human leukemia cancer cell line). Description: MTT assay, in vitro anticancer activity, HL-60. The following applies: 48 h treatment. The method, then: (§1) The synthesized compounds 7(a–l) were evaluated for their in vitro anticancer activity against MCF-7 (human breast cancer cell line), HeLa (human cervical cancer cell line), SKMEL-2 (human melanoma cancer cell line) and HL-60 (human leukemia cancer cell line) cancer cell lines, as shown in Table 2. […] The GI50 values (the concentration required to achieve a growth inhibition of 50%) for the synthesized compounds were determined by MTT assay method. The in vitro anticancer evaluation results and GI50 values were listed in Table 2, and the well-known anticancer drug Adriamycin was used as positive control.
(§2) The synthesized compounds 7(a–l) were evaluated for their in vitro anticancer activity against MCF-7 (human breast cancer cell line), HeLa (human cervical cancer cell line), SKMEL-2 (human melanoma cancer cell line) and HL-60 (human leukemia cancer cell line) cancer cell lines. The GI50 values (concentration required to Growth inhibition of 50%) for the synthesized compounds were determined using the MTT assays method.
(§3) The stock solutions of test compounds were prepared in DMSO. After 24 h incubation, different concentrations (2, 4, 6, 8 µM) of compounds, made by serial dilution in culture medium, were added in 48 h incubation. The final concentration of DMSO was 0.01% in each well. […] The cell growth was determined using MTT (3-(4,5-dimethylthiazol-2-yl)-2,5-diphenyl tetrazolium bromide (Sigma, St. Louis, MO, USA) reduction assay, which is based on the ability of viable cells to reduce a soluble yellow tetrazolium salt to blue formazan crystal. Briefly, after 48 h of treatments, the 10 µl of MTT dye, prepared in phosphate buffered saline (PBS) was added to all wells. The plates were then incubated for 4 h at 37 °C. Supernatant from each well was carefully removed, formazon crystals were dissolved in 100 µL of DMSO and absorbance at 540 nm wavelength was recorded and each concentration was tested in threefold. The GI50 values were determined as concentration of compounds that inhibited cancer cell growth by 50%.

The test system of series [2] is HeLa (human cervical cancer cell line). Description: MTT assay, in vitro anticancer activity, HeLa. The following applies: 48 h treatment. On the procedure: as §1, §2, §3
Series [3] relates to MCF-7 (human breast cancer cell line). Description: MTT assay, in vitro anticancer activity, MCF-7. The following applies: MCF7, 48 h treatment. On the procedure: as §1, §2, §3
Series [4] has as its system SKMEL-2 (human melanoma cancer cell line). Description: MTT assay, in vitro anticancer activity, SKMEL-2. The following applies: SK-MEL-2, 48 h treatment. On the procedure:
as §1, §2, §3

A short description of series [5]: MTT assay, cytotoxicity on non-tumorigenic cells, MCF-10A. The following applies: human, MCF-10A non-tumorigenic breast epithelial cells; MTT, MCF-10A normal breast epithelial cells. The method, then:
[The procedure below names another cell line; the source lists this cell line under the same test.] as §1, §3

Series [6] has as its system MCF-10A normal breast epithelial cell lines. The series is described as above. The following applies: MCF-7 vs MCF-10A GI50. On the procedure: [The procedure below names another cell line; the source lists this cell line under the same test.] as §1, §3

Molecules are shown by their SMILES.

For the molecule `COc1cc(/C=N/c2nnc(CNC(=O)c3ccccc3)s2)cc(OC)c1OC` [Compound 7i, (E)-N-((5-(3,4,5-Trimethoxybenzylideneamino)-1,3,4-thiadiazol-2-yl)methyl) benzamide], the GI50 stood at 45.8 µM in series [1], 78 µM in series [2], 49 µM in series [3] and 52.6 µM in series [4].
In the case of `O=C(NCc1nnc(/N=C/c2ccc(Cl)cc2)s1)c1ccccc1` [Compound 7a, (E)-N-((5-(4-Chlorobenzylideneamino)-1,3,4-thiadiazol-2-yl)methyl) benzamide], the 50% growth inhibitory concentration (GI50) in series [1] was determined as 21.7 µM; in series [2] it was 32.8 µM; in series [3], 22.9 µM; in series [4], 21.9 µM. For the same molecule, the GI50 at 48 h in series [5] was over 100 µM.
Consider `CCOc1cc(/C=N/c2nnc(CNC(=O)c3ccccc3)s2)ccc1O` [Compound 7f, (E)-N-((5-(3-Ethoxy-4-hydroxybenzylideneamino)-1,3,4-thiadiazol-2-yl)methyl) benzamide], for which the GI50 in series [1] is 37.5 µM; in series [2], 49.2 µM; in series [3], 38.4 µM; in series [4], 30 µM.
As for `COc1ccc(/C=N/c2nnc(CNC(=O)c3ccccc3)s2)cc1` [Compound 7g, (E)-N-((5-(4-Methoxybenzylideneamino)-1,3,4-thiadiazol-2-yl)methyl) benzamide], the 50% growth inhibitory concentration (GI50) came to 42.4 µM in series [1], 66.1 µM in series [2], 41 µM in series [3] and 46.4 µM in series [4].
As to `O=C(NCc1nnc(/N=C/c2ccc(Cl)cc2Cl)s1)c1ccccc1` [Compound 7b, (E)-N-((5-(2,4-Dichlorobenzylideneamino)-1,3,4-thiadiazol-2-yl)methyl) benzamide], the 50% growth inhibitory concentration (GI50) amounted to 28.2 µM in series [1], 39 µM in series [2], 28.7 µM in series [3] and 22.9 µM in series [4]. Further, the GI50 at 48 h in series [5] amounted to 86.1 µM. Also, in series [6], the “selectivity for MCF-7 cancer cell lines in comparison to MCF-10A normal breast epithelial cell lines” value is recorded as “three”.
Regarding `COc1ccc(/C=N/c2nnc(CNC(=O)c3ccccc3)s2)cc1OC` [Compound 7h, (E)-N-((5-(3,4-Dimethoxybenzylideneamino)-1,3,4-thiadiazol-2-yl)methyl) benzamide], the GI50 amounted to 48.2 µM in series [1], 71.7 µM in series [2], 46.2 µM in series [3] and 49.1 µM in series [4].
`O=C(NCc1nnc(/N=C/c2ccco2)s1)c1ccccc1` [Compound 7k, (E)-N-((5-(Furan-2-ylmethyleneamino)-1,3,4-thiadiazol-2-yl)methyl) benzamide]: the concentration for 50% growth inhibition (GI50) stood at 35.5 µM in series [1], 23.8 µM in series [2], 11.7 µM in series [3] and 19.6 µM in series [4]. Moreover, in series [5], the GI50 at 48 h is over 100 µM.
As to `COc1cc(OC)c(OC)cc1/C=N/c1nnc(CNC(=O)c2ccccc2)s1` [Compound 7j, (E)-N-((5-(2,4,5-Trimethoxybenzylideneamino)-1,3,4-thiadiazol-2-yl)methyl) benzamide], the GI50 in series [1] stood at 49.9 µM; in series [2], 78.8 µM; in series [3], 51.4 µM; in series [4] it was 55.7 µM.
On to `COc1cccc2c1C(=O)c1c(O)c3c(c(O)c1C2=O)C[C@@](O)(C(=O)CO)C[C@@H]3O[C@H]1C[C@H](N)[C@H](O)[C@H](C)O1` [ADR, Adriamycin, reference compound], for which the GI50 in series [1], in series [2], in series [3] and in series [4] was under 10 µM in each case.
As for `O=C(NCc1nnc(/N=C/c2ccc(O)cc2)s1)c1ccccc1` [Compound 7c, (E)-N-((5-(4-Hydroxybenzylideneamino)-1,3,4-thiadiazol-2-yl)methyl) benzamide], the 50% growth inhibitory concentration (GI50) in series [1] came out at 33.3 µM; in series [2], 41.1 µM; in series [3], 32.4 µM; in series [4], 27.5 µM.
In the case of `COc1cc(/C=N/c2nnc(CNC(=O)c3ccccc3)s2)ccc1O` [Compound 7e, (E)-N-((5-(4-Hydroxy-3-methoxybenzylideneamino)-1,3,4-thiadiazol-2-yl)methyl) benzamide], the GI50 in series [1] was 39.6 µM; in series [2], 46.8 µM; in series [3], 35.2 µM; in series [4], 28.1 µM.
With `O=C(NCc1nnc(/N=C/c2cccs2)s1)c1ccccc1` [Compound 7l, (E)-N-((5-(Thiophen-2-ylmethyleneamino)-1,3,4-thiadiazol-2-yl)methyl) benzamide], the 50% growth inhibitory concentration (GI50) turned out to be 29.9 µM in series [1], 28.8 µM in series [2], 19 µM in series [3] and 22 µM in series [4]. In series [5], the GI50 at 48 h is over 100 µM.
Take `O=C(NCc1nnc(/N=C/c2ccccc2O)s1)c1ccccc1` [Compound 7d, (E)-N-((5-(2-Hydroxybenzylideneamino)-1,3,4-thiadiazol-2-yl)methyl) benzamide]: the 50% growth inhibitory concentration (GI50) is 40.2 µM in series [1], 52.4 µM in series [2], 36.7 µM in series [3] and 34 µM in series [4].
